Results published in ChEMBL document CHEMBL1152145, “The discovery of equipotent PPARalpha/gamma dual activators” (Bioorg Med Chem Lett, 2008).

Legend:
[1] = biological target: T1, Peroxisome proliferator-activated receptor gamma (Homo sapiens, UniProt P37231)
T1 sequence (P37231 whole entry): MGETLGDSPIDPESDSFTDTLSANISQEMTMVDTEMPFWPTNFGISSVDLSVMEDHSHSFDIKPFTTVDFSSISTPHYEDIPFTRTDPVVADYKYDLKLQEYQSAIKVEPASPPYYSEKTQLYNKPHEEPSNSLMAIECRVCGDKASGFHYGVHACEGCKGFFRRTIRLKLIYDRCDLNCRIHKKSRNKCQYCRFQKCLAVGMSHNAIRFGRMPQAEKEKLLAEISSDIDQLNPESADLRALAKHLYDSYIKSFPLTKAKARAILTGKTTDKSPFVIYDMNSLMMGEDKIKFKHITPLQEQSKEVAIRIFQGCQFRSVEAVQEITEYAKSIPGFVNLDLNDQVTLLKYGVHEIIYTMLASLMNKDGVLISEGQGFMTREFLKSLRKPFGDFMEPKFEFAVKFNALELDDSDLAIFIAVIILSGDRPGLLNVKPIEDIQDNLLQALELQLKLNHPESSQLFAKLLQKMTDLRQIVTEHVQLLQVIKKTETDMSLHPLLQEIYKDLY
Description: Agonist activity at human PPARgamma receptor by cell based transient transfection assay

[2] = biological target: T2, Peroxisome proliferator-activated receptor alpha (Homo sapiens, UniProt Q07869)
T2 sequence (Q07869 whole entry): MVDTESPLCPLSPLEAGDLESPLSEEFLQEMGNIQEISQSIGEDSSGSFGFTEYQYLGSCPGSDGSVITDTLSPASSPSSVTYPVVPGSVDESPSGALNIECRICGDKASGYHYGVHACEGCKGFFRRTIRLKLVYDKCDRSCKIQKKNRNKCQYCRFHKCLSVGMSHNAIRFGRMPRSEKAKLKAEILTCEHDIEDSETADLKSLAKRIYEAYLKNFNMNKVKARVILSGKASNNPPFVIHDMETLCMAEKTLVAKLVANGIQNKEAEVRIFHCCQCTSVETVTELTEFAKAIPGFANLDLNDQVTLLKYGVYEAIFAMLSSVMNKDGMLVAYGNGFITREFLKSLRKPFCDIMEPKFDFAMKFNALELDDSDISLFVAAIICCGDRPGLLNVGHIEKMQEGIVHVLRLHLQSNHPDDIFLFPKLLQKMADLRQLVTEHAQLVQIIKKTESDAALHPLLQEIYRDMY
Description: Agonist activity at human PPARalpha receptor by cell based transient transfection assay

[3] = biological target: T3, Peroxisome proliferator-activated receptor delta (Homo sapiens, UniProt Q03181)
T3 sequence (Q03181 whole entry): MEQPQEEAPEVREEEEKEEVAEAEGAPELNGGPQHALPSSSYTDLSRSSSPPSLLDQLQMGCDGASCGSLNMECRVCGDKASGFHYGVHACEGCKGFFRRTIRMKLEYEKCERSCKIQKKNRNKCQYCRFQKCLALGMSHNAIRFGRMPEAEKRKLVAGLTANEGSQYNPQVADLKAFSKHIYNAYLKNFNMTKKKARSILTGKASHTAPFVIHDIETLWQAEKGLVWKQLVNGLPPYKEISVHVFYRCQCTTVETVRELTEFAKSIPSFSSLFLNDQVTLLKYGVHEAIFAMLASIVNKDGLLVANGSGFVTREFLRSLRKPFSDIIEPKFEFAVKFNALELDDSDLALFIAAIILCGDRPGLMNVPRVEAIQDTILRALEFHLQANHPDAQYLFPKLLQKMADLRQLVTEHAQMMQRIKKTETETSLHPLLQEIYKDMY
Description: (§1) Agonist activity at human PPARdelta receptor by cell based transient transfection assay

[4] = biological target: T4, Peroxisome proliferator-activated receptor alpha (Mus musculus, UniProt P23204)
T4 sequence (P23204 whole entry): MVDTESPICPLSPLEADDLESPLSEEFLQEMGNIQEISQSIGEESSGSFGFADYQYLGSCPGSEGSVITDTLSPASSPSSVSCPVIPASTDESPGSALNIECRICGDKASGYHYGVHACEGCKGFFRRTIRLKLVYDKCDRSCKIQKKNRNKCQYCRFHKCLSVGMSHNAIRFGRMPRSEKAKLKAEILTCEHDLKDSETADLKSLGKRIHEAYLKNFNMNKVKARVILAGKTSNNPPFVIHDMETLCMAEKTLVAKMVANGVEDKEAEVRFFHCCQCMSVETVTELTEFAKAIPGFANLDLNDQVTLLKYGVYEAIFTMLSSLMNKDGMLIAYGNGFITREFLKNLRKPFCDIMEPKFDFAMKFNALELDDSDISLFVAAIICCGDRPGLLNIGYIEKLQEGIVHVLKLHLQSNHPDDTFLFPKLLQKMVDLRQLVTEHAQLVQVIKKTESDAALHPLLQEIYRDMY
Description: Agonist activity at mouse PPARalpha receptor by cell based transient transfection assay

[5] = biological target: T5, Peroxisome proliferator-activated receptor gamma (Mus musculus, UniProt P37238)
T5 sequence (P37238 whole entry): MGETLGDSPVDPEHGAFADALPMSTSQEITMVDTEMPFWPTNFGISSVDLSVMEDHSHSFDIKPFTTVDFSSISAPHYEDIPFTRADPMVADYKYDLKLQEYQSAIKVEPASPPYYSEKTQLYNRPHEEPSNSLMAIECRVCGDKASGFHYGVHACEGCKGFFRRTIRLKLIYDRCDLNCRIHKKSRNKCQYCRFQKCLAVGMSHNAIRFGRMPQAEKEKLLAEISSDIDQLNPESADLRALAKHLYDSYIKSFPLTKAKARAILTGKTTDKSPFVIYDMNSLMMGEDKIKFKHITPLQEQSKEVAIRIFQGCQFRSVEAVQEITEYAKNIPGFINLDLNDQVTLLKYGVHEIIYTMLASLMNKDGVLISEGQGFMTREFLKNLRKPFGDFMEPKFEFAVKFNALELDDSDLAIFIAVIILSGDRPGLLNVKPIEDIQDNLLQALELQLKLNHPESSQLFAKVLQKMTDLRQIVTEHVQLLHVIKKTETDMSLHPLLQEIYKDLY
Description: Agonist activity at mouse PPARgamma receptor by cell based transient transfection assay

[6] = biological target: T6, Peroxisome proliferator-activated receptor delta (Mus musculus, UniProt P35396)
T6 sequence (P35396 whole entry): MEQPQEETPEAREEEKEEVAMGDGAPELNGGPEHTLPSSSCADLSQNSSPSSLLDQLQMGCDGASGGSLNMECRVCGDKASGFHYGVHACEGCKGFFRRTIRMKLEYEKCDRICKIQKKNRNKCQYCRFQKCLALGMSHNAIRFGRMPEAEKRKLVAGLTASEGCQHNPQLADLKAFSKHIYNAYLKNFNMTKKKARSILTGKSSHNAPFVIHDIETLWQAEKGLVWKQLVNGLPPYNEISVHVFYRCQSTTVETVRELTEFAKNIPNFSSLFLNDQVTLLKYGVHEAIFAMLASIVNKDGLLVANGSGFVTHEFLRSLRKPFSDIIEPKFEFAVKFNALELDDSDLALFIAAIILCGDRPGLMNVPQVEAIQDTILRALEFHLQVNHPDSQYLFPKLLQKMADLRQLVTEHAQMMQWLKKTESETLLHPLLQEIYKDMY
Description: Agonist activity at mouse PPARdelta receptor by cell based transient transfection assay

[7] = biological target: T3, Peroxisome proliferator-activated receptor delta; remark: listed apart in the source
Description: as §1

[8] = Half life in CD rat at […], iv and 5 mg/kg, po; format: ADME, organism-based; settings: in vivo
[9] = Cmax in CD rat at […], iv and 5 mg/kg, po; format: ADME, organism-based; settings: in vivo
Rattus norvegicus [10] = experiment: Increase in liver weight in Zucker fatty (fa/fa) rat at 30 mg/kg, bid after 5 days; format: functional
[11] = Clearance in CD rat at […], iv and 5 mg/kg, po; format: ADME, organism-based; settings: in vivo
Rattus norvegicus [12] = experiment: Decrease in insulin level in Zucker fatty (fa/fa) rat at 10 mg/kg, bid after 5 days; format: functional; set-up: scale not given: the % may be the effect or the level left
[13] = AUC in CD rat at 5 mg/kg, po; format: ADME, organism-based; set-up: dose 5 mg/kg, route oral; settings: plasma
Rattus norvegicus [14] = experiment: Increase in liver weight in Zucker fatty (fa/fa) rat at 10 mg/kg, bid after 5 days; format: functional
Rattus norvegicus [15] = experiment: Decrease in insulin level in Zucker fatty (fa/fa) rat at 30 mg/kg, bid after 5 days; format: functional; set-up: scale not given: the % may be the effect or the level left
[16] = Bioavailability in CD rat at […], iv and 5 mg/kg, po; format: ADME, organism-based; settings: in vivo
Rattus norvegicus [17] = experiment: Decrease in total triglyceride level in Zucker fatty (fa/fa) rat at 30 mg/kg, bid after 5 days; format: functional; set-up: scale not given: the % may be the effect or the level left
[18] = Volume of distribution at steady state in CD rat at […], iv and 5 mg/kg, po; format: ADME, organism-based; settings: in vivo, read-out: Vdss
Rattus norvegicus [19] = experiment: Decrease in total triglyceride level in Zucker fatty (fa/fa) rat at 10 mg/kg, bid after 5 days; format: functional; set-up: scale not given: the % may be the effect or the level left

| Compound | EC50 [1] | EC50 [2] | EC50 [3] | further results |
| --- | --- | --- | --- | --- |
| Cc1cc(CNC(=O)c2cc(-c3ccc(OCc4ccccc4)cc3)n(C)n2)ccc1OC(C)(C)C(=O)O | 80 nM | > 25000 nM | > 25000 nM | – |
| C=CCn1nc(C(=O)NCc2ccc(OC(C)(C)C(=O)O)c(C)c2)cc1-c1ccc(C(C)(C)C)cc1 | – | – | – | EC50 [4]: 6000 nM; EC50 [5]: 150 nM; EC50 [6]: > 25000 nM |
| CCn1nc(C(=O)NCc2ccc(OC(C)(C)C(=O)O)c(OC)c2)cc1-c1ccc(C(C)(C)C)cc1 | 190 nM | > 25000 nM | > 25000 nM | – |
| Cn1nc(-c2ccc(C(C)(C)C)cc2)cc1C(=O)NCc1ccc(OC(C)(C)C(=O)O)cc1 | 1000 nM | 160 nM | – | EC50 [7]: 10000 nM |
| Cc1cc(CNC(=O)c2cc(-c3ccc(N4CCOCC4)cc3)n(C)n2)ccc1OC(C)(C)C(=O)O | 110 nM | 85 nM | 35 nM | – |
| Cc1cc(CNC(=O)c2cc(-c3ccc(C(C)(C)C)cc3)n(Cc3ccccc3)n2)ccc1OC(C)(C)C(=O)O | – | 200 nM | 25000 nM | – |
| C=CCn1nc(-c2ccc(C(C)(C)C)cc2)cc1C(=O)NCc1ccc(OC(C)(C)C(=O)O)c(C)c1 | 60 nM | 45 nM | – | – |
| Cc1cc(CNC(=O)c2cc(-c3ccc(C(C)(C)C)cc3)n(C)n2)ccc1OC(C)(C)C(=O)O | – | 10 nM | > 10000 nM | half-life [8]: 49.8 min; Cmax [9]: 1130 ng/mL; Activity (Rattus norvegicus [10]): 14%; clearance [11]: 17 mL/min/kg; Activity (Rattus norvegicus [12]): 10%; EC50 [4]: 640 nM; AUC [13]: 1790 ng·h/mL; Activity (Rattus norvegicus [14]): 9%; Activity (Rattus norvegicus [15]): 35%; bioavailability [16]: 22%; EC50 [5]: 11 nM; EC50 [6]: > 25000 nM; Activity (Rattus norvegicus [17]): 45%; Vd [18]: 0.3 L/kg; Activity (Rattus norvegicus [19]): 57% |
| CCn1nc(C(=O)NCc2ccc(OC(C)(C)C(=O)O)c(C)c2)cc1-c1ccc(C(C)(C)C)cc1 | 15 nM | 10 nM | > 25000 nM | EC50 [4]: 2260 nM; EC50 [5]: 36 nM; EC50 [6]: > 25000 nM |
| Cc1cc(CNC(=O)c2cc(-c3ccc(C(C)C)cc3)nn2C)ccc1OC(C)(C)C(=O)O | 50 nM | 20 nM | 1360 nM | – |

Second part, led by results:

| EC50 [1] | EC50 [2] | EC50 [3] | Compound | further results |
| --- | --- | --- | --- | --- |
| – | 8 nM | – | Cc1cc(CNC(=O)c2cc(-c3ccc(N4CCCC4)cc3)n(C)n2)ccc1OC(C)(C)C(=O)O | – |
| 8 nM | – | 4850 nM | Cc1cc(CNC(=O)c2cc(-c3ccc(C(C)C)cc3)n(C)n2)ccc1OC(C)(C)C(=O)O | EC50 [4]: 280 nM; EC50 [5]: 16 nM; EC50 [6]: 7100 nM |
| – | > 25000 nM | > 25000 nM | COc1cc(CNC(=O)c2cc(-c3ccc(CC(C)C)cc3)n(C)n2)ccc1OC(C)(C)C(=O)O | – |
| 176 nM | > 25000 nM | > 25000 nM | COc1cc(CNC(=O)c2cc(-c3ccc(C(C)(C)C)cc3)n(C)n2)ccc1OC(C)(C)C(=O)O | – |
| 50 nM | 45 nM | 2870 nM | Cc1cc(CNC(=O)c2cc(-c3ccc(CC(C)C)cc3)nn2C)ccc1OC(C)(C)C(=O)O | – |
| 800 nM | 4 nM | 10000 nM | Cc1nc(-c2ccc(C(C)(C)C)cc2)sc1C(=O)NCc1ccc(OC(C)(C)C(=O)O)cc1 | – |
| 30 nM | 90 nM | – | Cc1cc(CNC(=O)c2cc(-c3ccc(-c4ccccc4C)cc3)n(C)n2)ccc1OC(C)(C)C(=O)O | EC50 [4]: 1800 nM; EC50 [5]: 60 nM; EC50 [6]: > 25000 nM |
| – | – | > 25000 nM | C=CCOc1ccc(-c2cc(C(=O)NCc3ccc(OC(C)(C)C(=O)O)c(C)c3)nn2C)cc1 | – |
| 30 nM | 50 nM | 2700 nM | CCn1nc(-c2ccc(C(C)(C)C)cc2)cc1C(=O)NCc1ccc(OC(C)(C)C(=O)O)c(C)c1 | – |
